The values below come from PubChem BioAssay AID687000 (Broad Institute, 2013).

“And” between values parts separate entries of the source, which are not always exact repeats. Equal entries are not always repeated. The source made the active and inactive calls.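 The calls were made as follows: active = fitted dose curve reaches 40% lysis signal rise at or below the highest valid concentration tested for that sample; inconclusive = flat fit between 30% and 70%, or poor curve fit; inactive = signal falls, stays flat within 30%, or no crossing.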

This assay has as its system C. neoformans lysis, adenylate kinase release luminescence, 4 h. As to the kind of experiment: inducers of Cryptococcus neoformans cell lysis, dose response, AK release luminescence, cherry-picks (AID 687000).
As for `CC[C@H](C)[C@@H]1NC(=O)CNC(=O)c2csc(n2)[C@H](C(C)(C)O)OC(=O)C(C)(C)[C@H](CCCC(C)(Cl)Cl)OC(=O)c2csc1n2`, the AC40 is 2.66 µM.

For `COc1ccccc1/C=N/NC(=S)NCc1ccco1`, the AC40 is > 15 µM (inactive).

As to `C[C@@H]1CCCCO[C@H](CN(C)S(=O)(=O)c2cccs2)[C@@H](C)CN([C@@H](C)CO)C(=O)c2cc(NC(=O)CCC(F)(F)F)ccc2O1`, the AC40 is > 15 µM (inactive).

On to `COC(=O)C1=C(C)N(Cc2ccc(F)cc2)C(=S)NC1c1cccc(Br)c1` (stereo not given), for which the AC40 is 6.51 µM.

As to `CCCC(=O)N1CCC1(C)C(=O)Nc1ccc(C)cc1` (stereo not given), the AC40 is > 28.5 µM (inactive).

For `COc1ccc(NC(=S)NCc2ccc(Cl)cc2)c(OC)c1`, the AC40 was 4.16 µM.

`O=C(Nc1ccccc1N1CCOCC1)c1cccc([N+](=O)[O-])c1`: the AC40 is > 7.5 µM (inactive).

For the compound `C[C@@H]1CN([C@@H](C)CO)C(=O)CCCn2nncc2CO[C@H]1CN(C)C(=O)Oc1cccc2ccccc12`, the AC40 was > 15 µM (inactive).

With `CCCNC(C)C(=O)Nc1ccccc1C` (stereo not given), the AC40 was > 15 µM (inactive).

With `Cc1ccc2nc(C)c3c(c2c1)OC(C(C)(Cl)Br)C3` (stereo not given), the AC40 is > 15 µM (inactive).

For `Cc1ccc(C(=O)NC(=S)Nc2ccccc2N2CCCC2)cc1[N+](=O)[O-]`, the AC40 was > 15 µM (inactive).

Regarding `Cc1cccc2sc(N3CCN(C(=O)c4cccs4)CC3)nc12`, the AC40 is > 15 µM (inactive).

On to `CCOc1ccc(CNC(=S)NCc2ccc(OCC)cc2)cc1`, for which the AC40 is > 15 µM (inactive).

Consider `CCCCN1C(=S)NC[C@@H]1Cc1ccccc1`, for which the AC40 was 5.11 µM.

Take `COC(=O)C1=C(C)N(Cc2ccc(Cl)cc2)C(=S)NC1c1cccc(F)c1` (stereo not given): the AC40 is 13.1 µM.

Consider `O=C(NC1CCCCC1)N[C@H]1C=C[C@@H](CC(=O)N2CCOCC2)O[C@@H]1CO`, for which the AC40 was > 15 µM (inactive).

Consider `CC(C)c1ccccc1NC(=S)NN(Cc1ccccc1)c1ccccc1`, for which the AC40 was > 15 µM (inactive).

Turning to `C[C@@H]1CN([C@@H](C)CO)C(=O)Cc2cc(NC(=O)c3ccncc3)ccc2O[C@H]1CN(C)Cc1ccncc1`, the AC40 was > 15 µM (inactive).

For `C[C@@H]1CCCCO[C@@H](CN(C)C(=O)CCCN(C)C)[C@@H](C)CN([C@H](C)CO)C(=O)c2cc(NC(=O)Cc3ccccc3)ccc2O1`, the AC40 was 14.8 µM.

For `COc1ccccc1NC(=S)NCc1ccc(Cl)cc1`, the AC40 is 2.19 µM.

Consider `CC(C)NC(=O)N[C@H]1CC[C@@H](CCNC(=O)C2CC2)O[C@H]1CO`, for which the AC40 was > 15 µM (inactive).

As to `C[C@H]1CN([C@@H](C)CO)C(=O)c2cc(-c3ccc(F)cc3)cnc2O[C@@H]1CN(C)CC1CCCCC1`, the AC40 is > 15 µM (inactive).

In the case of `O=C(NC(=S)Nc1ccccc1N1CCCC1)c1ccc([N+](=O)[O-])cc1`, the AC40 was 2.09 µM.

For `COC(=O)C1=C(C)N(Cc2ccc(Cl)cc2)C(=S)NC1c1cccc(Cl)c1` (stereo not given), the AC40 is 2.95 µM.

As to `C[C@H]1CN([C@@H](C)CO)C(=O)Cc2cc(NS(C)(=O)=O)ccc2O[C@@H]1CN(C)Cc1ccc(Cl)c(Cl)c1`, the AC40 is > 15 µM (inactive).

On to `C[C@@H]1CN([C@H](C)CO)C(=O)c2cc(C3=CCCCC3)cnc2O[C@H]1CN(C)C(=O)Cc1cccnc1`, for which the AC40 was > 15 µM (inactive).

As to `CCNC(=O)C[C@H]1CC[C@H](NC(=O)NC2CCCCC2)[C@@H](CO)O1`, the AC40 was > 15 µM (inactive).

As for `C[C@@H]1CN([C@H](C)CO)S(=O)(=O)c2ccc(C#CC3CC3)cc2O[C@H]1CN(C)CC1CCOCC1`, the AC40 was > 15 µM (inactive).

For `COCC(=O)NC[C@H]1N[C@H](CO)[C@H]1c1ccc(C2=CCCC2)cc1`, the AC40 is > 15 µM (inactive).

Consider `COc1ccc(C(=O)NC(=S)Nc2ccccc2N2CCOCC2)cc1[N+](=O)[O-]`, for which the AC40 is > 15 µM (inactive).

As for `CNC[C@@H]1OCCCC[C@@H](C)Oc2ccc(NS(=O)(=O)c3ccc(Cl)cc3)cc2C(=O)N([C@H](C)CO)C[C@H]1C`, the AC40 is > 15 µM (inactive).

Turning to `COC(=O)C1=C(C)N(Cc2ccccc2)C(=S)N[C@H]1c1cccc(C(F)(F)F)c1`, the AC40 is > 15 µM (inactive).

For the compound `O=C(CSc1ncnc2c1cnn2-c1cccc(Cl)c1)NCC1CCCO1` (stereo not given), the AC40 is > 15 µM (inactive).

In the case of `S=C(NCc1ccccc1)NCC1COc2ccccc2O1` (stereo not given), the AC40 is 9.32 µM.

Take `O=C(COC(=O)CCC1CCCC1)Nc1nc2c(F)c(F)c(F)cc2s1`: the AC40 was > 15 µM (inactive).

Take `O=C(NCCc1ccccc1)[C@@H]1[C@@H](CO)[C@@H]2Cn3c(cccc3=O)[C@H]1N2C(=O)C1CCC1`: the AC40 was > 7.5 µM (inactive).

With `CCCCNC(=S)N/N=C/c1ccc(C#N)cc1`, the AC40 is 4.58 µM.

For `C[C@H](CO)N1C[C@H](C)[C@@H](CN(C)C(=O)c2ccncc2)OCCCC[C@H](C)Oc2ccc(NC(=O)Cc3ccccc3)cc2C1=O`, the AC40 was > 15 µM (inactive).

Take `CC(C)C#Cc1ccc([C@@H]2[C@H](CO)N3CCCCN(C(=O)c4ccc5c(c4)OCO5)C[C@@H]23)cc1`: the AC40 was > 15 µM (inactive).

Consider `Cc1ccc(NC(=O)N2CCCC2C(=O)Nc2c(C)cc(C)cc2C)cc1` (stereo not given), for which the AC40 was > 15 µM (inactive).

Regarding `O=C(NC(=S)Nc1ccccc1N1CCOCC1)c1ccc(Br)cc1`, the AC40 was > 15 µM (inactive).

As to `COC(=O)C1=C(C)N(Cc2ccc(Cl)cc2)C(=S)NC1c1ccc(F)cc1` (stereo not given), the AC40 is 2.23 µM and 3.73 µM.

As to `CO[C@@H]1CN(C)C(=O)c2ccc(NC(C)=O)cc2OC[C@@H](C)N(C(=O)Cc2cccnc2)C[C@H]1C`, the AC40 was > 13.5 µM (inactive).

Turning to `COc1cc2c(C(=O)N(C)c3cc(Cl)ccc3OC)cn(C)c(=O)c2cc1OC`, the AC40 is > 15 µM (inactive).

Take `COc1ccccc1NC(=S)NCc1ccccc1Cl`: the AC40 is 7.43 µM.

`Cc1ccc(CSc2ncnc3c2cnn3-c2ccc(C)cc2)cc1`: the AC40 was > 15 µM (inactive).

As for `C[C@H](CO)N1C[C@H](C)[C@@H](CN(C)Cc2ccc(-c3ccccc3)cc2)Oc2ccc(NC(=O)Nc3ccc(C(F)(F)F)cc3)cc2C1=O`, the AC40 is > 15 µM (inactive).

Take `S=C(Nc1ccccc1Oc1ccccc1)Nc1cccc(Cl)c1Cl`: the AC40 was > 15 µM (inactive).

Turning to `CCOC(=O)NC(=S)Nc1ccc(C(C)(C)C)cc1`, the AC40 is 1.21 µM.

Consider `O=C(NC(=S)Nc1cccc(F)c1)c1cccc([N+](=O)[O-])c1`, for which the AC40 was 3.02 µM.

Regarding `CCN(Cc1ccccc1)C(=O)COc1ccccc1`, the AC40 was > 15 µM (inactive).

Regarding `CCc1nc(N2CCCCC2C)c2oc3ccccc3c2n1` (stereo not given), the AC40 was 1.65 µM.

In the case of `COC(=O)C1=C(C)N(Cc2ccccc2)C(=S)NC1c1ccc(Br)cc1` (stereo not given), the AC40 was 2.58 µM.

Take `Cc1cccc(C)c1NC(=O)CN(C)C(=O)C1CC1C` (stereo not given): the AC40 is > 15 µM (inactive).

Turning to `COC(=O)C1=C(C)N(Cc2ccccc2)C(=S)N[C@H]1c1cccc(F)c1`, the AC40 was 11.7 µM.

In the case of `C[C@@H]1CN([C@H](C)CO)C(=O)Cc2cc(NC(=O)NC3CCCCC3)ccc2O[C@@H]1CN(C)Cc1ccccc1`, the AC40 is > 15 µM (inactive).

Take `C[C@H]1CN([C@@H](C)CO)C(=O)Cc2cc(N(C)C)ccc2O[C@@H]1CN(C)C(=O)Nc1ccc(C(F)(F)F)cc1`: the AC40 was > 15 µM (inactive).

For the compound `Cc1cccc(C)c1NC(=O)C1CCCN1C(=O)NCc1ccccc1` (stereo not given), the AC40 was > 15 µM (inactive).

Consider `Cc1cc(C)c2nc(N3CCN(C(=O)c4cccs4)CC3)sc2c1`, for which the AC40 was 2.56 µM.

Regarding `COC(=O)C1=C(C)N(Cc2ccc(Br)cc2)C(=S)NC1c1cccc(Cl)c1` (stereo not given), the AC40 is 1.17 µM.

With `COc1ccccc1CNC(=S)NCc1ccc(Cl)cc1`, the AC40 was 2.03 µM.

In the case of `C[C@H](CO)N1C[C@H](C)[C@H](CN(C)Cc2ccc(-c3ccccc3)cc2)Oc2c(NC(=O)c3ccncc3)cccc2C1=O`, the AC40 was > 15 µM (inactive).

On to `Cc1noc(C)c1NC(=O)N(C)C[C@H]1OCCCC[C@H](C)Oc2ccc(NC(=O)NC(C)C)cc2C(=O)N([C@@H](C)CO)C[C@@H]1C`, for which the AC40 is > 15 µM (inactive).

With `CC(C)CC1(C)N=C(c2ccccc2)C(=S)N1` (stereo not given), the AC40 was 11.2 µM.

Regarding `S=C(Nc1ccc(Cl)cc1Cl)Nc1ccccc1Oc1ccccc1`, the AC40 was 3.3 µM.

Take `C[C@@H]1CCCCO[C@H](CN(C)C(=O)CCCN(C)C)[C@@H](C)CN([C@H](C)CO)C(=O)c2cc(NC(=O)Cc3ccccc3)ccc2O1`: the AC40 is > 15 µM (inactive).

As for `COC(=O)C1=C(C)N(Cc2ccccc2)C(=S)NC1c1cccc(OC)c1` (stereo not given), the AC40 is > 15 µM (inactive) and > 16 µM (inactive).

As to `CCCNC(=O)C[C@@H]1CC[C@@H]2[C@H](COc3ccc(NC(=O)CCC)cc3C(=O)N2C)O1`, the AC40 is > 15 µM (inactive).

For `C[C@H](O)C#Cc1ccc2c(c1)O[C@H](CN(C)Cc1ccncc1)[C@H](C)CN([C@H](C)CO)S2(=O)=O`, the AC40 was > 15 µM (inactive).

As to `CCCC(=O)Nc1ccc2c(c1)C(=O)N(C)C[C@H](OC)[C@@H](C)CN(C(=O)c1cccnc1)[C@@H](C)CO2`, the AC40 was > 15 µM (inactive).

For `CCCN1C[C@H](C)[C@@H](OC)CN(C)C(=O)c2cc(NC(=O)c3cccc(F)c3)ccc2OC[C@@H]1C`, the AC40 was > 15 µM (inactive).

Turning to `COCCNC(=O)C[C@H]1C[C@@H]2c3cc(NC(=O)C4CCC4)ccc3O[C@@H]2[C@H](CO)O1`, the AC40 is > 15 µM (inactive).

For the compound `CC(C)NC(=O)Nc1ccc2c(c1)C(=O)N([C@@H](C)CO)C[C@@H](C)[C@@H](CN(C)C(=O)NC(C)C)OCCCC[C@@H](C)O2`, the AC40 is > 15 µM (inactive).

Consider `COC(=O)C1=C(C)N(Cc2ccc(Cl)cc2)C(=S)NC1c1cccc(OC)c1` (stereo not given), for which the AC40 was 3.04 µM.

For the compound `COC(=O)C1=C(C)N(Cc2ccc(F)cc2)C(=S)NC1c1ccc(F)cc1` (stereo not given), the AC40 is 6.96 µM.

Take `COc1ccc(CNC(=S)NCc2ccc(OC(C)C)cc2)cc1`: the AC40 is 8.39 µM.

For `C[C@H]1CN([C@@H](C)CO)C(=O)c2ccccc2-c2ccccc2CO[C@H]1CN(C)S(=O)(=O)c1cccc(C#N)c1`, the AC40 was > 15 µM (inactive).

In the case of `Cc1ccc(C(=O)NC(=S)Nc2ccc(N3CCOCC3)cc2)cc1`, the AC40 was 11.9 µM.

On to `CCc1ccc(C(C)NC(=S)NCc2ccc(F)cc2)cc1` (stereo not given), for which the AC40 is 0.511 µM.

As to `COC(=O)C1=C(C)N(Cc2ccccc2)C(=O)N[C@H]1c1cccc(F)c1`, the AC40 was > 15 µM (inactive).
